Several values for one entry are separate records, joined by “and”; a condition that tells them apart may be missing. Equal values may be shown once.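 Dose response: 5 concentrations. Exposure: 48 h. Format: 96-well plates. Endpoint: linear interpolation; highest concentration if not reached. GI50: concentration for 50% inhibition of growth. The concentration for full growth arrest is given as TGI.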 Bounds are passed on as bounds.

Holding throughout (experiment): NCI tumour cell line growth inhibition, 48 h
Assay [1] concerns SW-620 colon.
Assay [2] deals with HL-60(TB) leukemia.
The test system of assay [3] is ACHN renal.
The subject of assay [4] is CCRF-CEM leukemia.
Assay [5] relates to A549 NSCLC.
Assay [6] has as its system HOP-62 NSCLC.
The subject of assay [7] is LOX IMVI melanoma.
For assay [8], the system named is MDA-MB-435.
Assay [9] has as its system DU-145 prostate.
Assay [10] relates to MDA-MB-231 breast.

As to `O=C(NCC(=O)N1CCOC1=O)OCc1ccccc1`, the TGI in assay [1], in assay [2], in assay [3], in [4], in [5] and in assay [6] was more than 100 µM throughout. The compound also came in with a TGI in assay [7] of more than 100 µM.
Consider `N/C(=N\c1nc2ccccc2s1)NC(=NC1CCCCC1)NC1CCCCC1`, for which the GI50 in assay [8] is 1.44 µM; in [1] it was 1.65 µM; in assay [2] it was 1.83 µM; in [3], 1.6 µM; in assay [4], 2.46 µM; in [9] it was 1.78 µM. For the same compound, the GI50 is 1.78 µM in [6] and 1.61 µM in [7]. In addition, the TGI in [8] was determined as 2.8 µM; in assay [1] it was 3.33 µM; in [2], 4.35 µM; in [3], 2.96 µM; in assay [4], 9.28 µM; in assay [9], 3.34 µM. Moreover, the TGI in assay [6] worked out at 3.99 µM; in [7], 2.99 µM.
With `COc1cccc2c1[C@H]1CO[C@H]3C4C[C@H](C(=O)O)C([C@@H](C2)N13)N4C` (stereo partly specified), the TGI was 0.204 µM in assay [8]; 8.4 µM and 5.82 µM in assay [1]; 4.03 µM and 1.85 µM in [2]; 99 µM in assay [5]; 9.75 µM and 5.44 µM in [6]; 3.29 µM and > 23.9 µM in assay [7]. Moreover, the GI50 in assay [1] is 3.61 µM; in [2], 0.368 µM; in assay [4], 2.42 µM and 1.6 µM; in assay [5], 10.1 µM; in assay [6], 3.92 µM and 1.72 µM.
As for `COCCOCOC(C)(C)[C@H](CCOC(C)=O)O[Si](c1ccccc1)(c1ccccc1)C(C)(C)C`, the TGI was more than 100 µM in assay [1]; 10.4 µM in [2]; 51.1 µM in [3]; 23.7 µM in [4]; more than 100 µM in assay [5]; 66.7 µM in [6]. In assay [7], this compound showed a TGI of 27.6 µM.
Turning to `O=C(O)[C@@H](NS(=O)(=O)c1ccc2ccccc2c1)c1ccccc1`, the TGI in [2], in assay [3], in [4] and in assay [7] was more than 100 µM each time.
Take `Cc1ccc(NC(=O)CC2SC(N)=NC2=O)cc1C` (stereo unspecified): the TGI in assay [1], in [2], in [3], in [5], in assay [6] and in assay [7] was more than 100 µM each time.
As for `CC(=O)NNc1nc(C)c(C(=O)/C=C/c2ccc(/C=C/C(=O)c3sc(NNC(C)=O)nc3C)cc2)s1`, the TGI in [1], in [2], in [3], in assay [4], in assay [5] and in [6] was more than 100 µM throughout. This compound yielded a TGI in assay [7] of more than 100 µM.
With `CN1CCc2c1nc(-c1cccnc1)c1c2N(C)CC1`, the TGI in [1], in assay [2], in [3], in assay [4], in assay [5] and in assay [6] was more than 100 µM in each case. This compound also gave a TGI in assay [7] of more than 100 µM.
As to `O=C(N/C(=C\c1cc(Cl)ccc1Cl)c1nc2ccc(Cl)cc2[nH]1)c1ccccc1`, the TGI stood at 31.1 µM in assay [1]; 37.1 µM in assay [2]; 78.1 µM in [3]; 51.4 µM in [4]; 38.1 µM in assay [5]; 32.3 µM in [6]. In addition, the TGI in [7] was determined as 26.4 µM.
Turning to `NC(=O)C12CC3CC(CC(Br)(C3)C1)C2`, the TGI in assay [1], in [2], in assay [3], in assay [4], in assay [5] and in [6] was more than 100 µM throughout. The compound also showed a TGI in [7] of more than 100 µM.
`COc1ccc(Oc2ccccc2NC(=O)CNC(=O)c2cccc3ccccc23)cc1`: the GI50 in [1] was 0.678 µM; in assay [2] it was 0.613 µM; in [3], 1.53 µM; in assay [4], 0.904 µM; in assay [5] it was 1.25 µM; in assay [9], 1.02 µM. Also, the GI50 is 0.717 µM in assay [6], 2.25 µM in [10] and 1.34 µM in [7]. For the same compound, the TGI in assay [1] was more than 25 µM; in assay [2], 1.71 µM; in assay [3], more than 25 µM; in assay [4] it was more than 25 µM; in assay [5] it was more than 25 µM; in assay [9], more than 25 µM. Besides, the TGI in assay [6], in assay [10] and in [7] was more than 25 µM throughout.
Take `CCN(CC)CCC(CNc1c(C)cnc2cc(Cl)ccc12)c1ccc(Cl)cc1` (stereo unspecified): the GI50 in assay [1] is 4.91 µM; in assay [2], 4.45 µM; in assay [3] it was 6.47 µM; in assay [4] it was 4.32 µM; in assay [5], 16 µM; in [9] it was 12.8 µM. Moreover, the GI50 in assay [6] was 10.6 µM. For the same compound, the TGI in assay [1] was found to be 19.6 µM; in [2] it was 26.9 µM; in assay [3], 20.1 µM; in assay [4], 19.2 µM; in [5] it was 32.2 µM; in [9], 26 µM. The compound further displayed a TGI in [6] of 23.8 µM.
Regarding `COC(=O)C#CCC1CCCC1C1SCCS1` (stereo unspecified), the TGI in assay [1] is more than 100 µM; in assay [2], more than 100 µM; in assay [3] it was more than 100 µM; in assay [4] it was 72.3 µM; in assay [5], more than 100 µM; in [6], more than 100 µM. The TGI in assay [7] was more than 100 µM.
`CCN(CC)CCCC(C)Nc1c(Sc2cnc3cc(Cl)ccc3c2NC(C)CCCN(CC)CC)cnc2cc(Cl)ccc12` (stereo unspecified): the TGI was determined as 2.92 µM in assay [1]; 3.62 µM in assay [2]; 3.82 µM in assay [3]; 5.21 µM in [4]; 3.24 µM in assay [5]; 3.36 µM in assay [7].
`COc1cc(/C=C\c2ccncc2)cc(OC)c1OC`: the TGI in assay [1], in assay [2], in [3], in assay [4], in assay [5] and in assay [6] was more than 100 µM in each case. For the same compound, in assay [7], the TGI is more than 100 µM.
`CCCCCCCCCCCCCP(=O)(NCC(N)=O)OCC` (stereo unspecified): the TGI is 41 µM in assay [1]; 38.2 µM in [2]; 47.9 µM in assay [3]; 47.7 µM in [4]; 40.7 µM in assay [5]; 32 µM in assay [6].
Regarding `COC/N=C(/N)NC#N`, the TGI in assay [1] was 33.6 µM; in assay [2], more than 100 µM; in assay [3], more than 100 µM; in assay [4] it was more than 100 µM; in [5], more than 100 µM; in assay [6] it was more than 100 µM.
As for `C#C[C@H]1CCCCCC1O` (stereo partly specified), the TGI in assay [1] is 69.8 µM; in assay [2] it was more than 100 µM; in assay [3], more than 100 µM; in [4], more than 100 µM; in [5] it was more than 100 µM; in [6] it was more than 100 µM. The same compound had a TGI in assay [7] of more than 100 µM.
Consider `COc1ccc(-c2ccc(/C=N/n3c(COc4ccccc4Cl)n[nH]c3=S)o2)c([N+](=O)[O-])c1`, for which the GI50 was 20 µM in [8]; 22.4 µM in assay [2]; 25.6 µM in assay [3]; 23.1 µM in [4]; 30.4 µM in assay [5]; 26.7 µM in [6]. The GI50 was 46.7 µM in assay [10] and 17.6 µM in [7]. Also, the TGI was 46.6 µM in assay [8]; 56.4 µM in assay [2]; 69.5 µM in assay [3]; more than 100 µM in assay [4]; 87.9 µM in [5]; 69.3 µM in assay [6]. Besides, the values for the TGI in assay [10] and in [7] were more than 100 µM and 45.8 µM, respectively.
As for `COc1ccc(-c2onc(-c3c(C)cc(C)cc3C)c2C2=NCCN2)cc1`, the TGI in [1] was more than 100 µM; in [2] it was 59.3 µM; in assay [3], more than 100 µM; in [4], more than 100 µM; in assay [5] it was more than 100 µM; in [6], more than 100 µM. Moreover, the TGI in [7] is more than 100 µM.
Take `O=C(CCc1nc(=S)[nH][nH]1)Nc1cccc(C(F)(F)F)c1`: the TGI was 28.5 µM in assay [1]; more than 100 µM in assay [2]; more than 100 µM in assay [3]; more than 100 µM in [4]; more than 100 µM in assay [5]; more than 100 µM in [6]. In addition, in assay [7], the TGI was more than 100 µM.
For `N.N.N.N.N.O=S(=O)([O-])C(F)(F)F.O=S(=O)([O-])C(F)(F)F.[Os+8]`, the GI50 in assay [1] is 8.48 µM; in [2], 8.92 µM; in assay [3], 19.8 µM; in assay [4] it was 6.89 µM; in assay [5] it was 24.2 µM; in [6], 6.34 µM. Besides, in assay [7], the GI50 is 4.74 µM. The TGI was 41.4 µM in assay [1]; 36.2 µM in [2]; more than 100 µM in assay [3]; 40.6 µM in [4]; more than 100 µM in assay [5]; 20 µM in assay [6]. The TGI in assay [7] is 20 µM.
`COC(=O)/C(C#N)=C1\CCc2ccccc21`: the TGI in assay [1], in assay [2], in [3], in [4], in [5] and in assay [7] was more than 100 µM in each case.
Consider `Nc1ccc(C(=O)N/C(=C\c2cccc([N+](=O)[O-])c2)c2nc3ccc(Cl)cc3[nH]2)cc1`, for which the TGI in [1], in assay [3], in assay [4] and in [5] was more than 100 µM each time.
For the compound `COc1ccc(Cc2nc3ccccc3s2)cc1OC`, the TGI stood at 32.7 µM in assay [1]; 45.3 µM in [2]; 31 µM in assay [3]; 44.7 µM in assay [4]; 61.8 µM in [5]; 93.5 µM in assay [6].
Turning to `O=C(O)COc1ccc(C(=O)/C(SS/C(C(=O)c2ccc(OCC(=O)O)c(Cl)c2Cl)=C2\C=C(c3ccc(Br)cc3)SS2)=C2/C=C(c3ccc(Br)cc3)SS2)c(Cl)c1Cl`, the TGI in assay [8] is more than 100 µM; in assay [1] it was 31.2 µM; in assay [2], 4.67 µM; in [3] it was 22 µM; in [4], 17 µM; in assay [5], more than 100 µM. Also, the TGI in assay [9] was more than 100 µM; in assay [6], 54.1 µM; in assay [7], 13.7 µM.
Consider `CCN(CC)C(=O)COc1cc2c(O)c3c(O)c(C)c4c(c13)C(=O)C(C)(OC=CC(OC)C(C)C(OC(C)=O)C(C)C(O)C(C)C(O)C(C)C=CC=C(C)C(=O)N2)O4` (stereo unspecified), for which the TGI in assay [1], in assay [3], in assay [4], in assay [5], in assay [9] and in assay [6] was more than 100 µM in each case. The TGI in assay [10] and in assay [7] was more than 100 µM each time.
Regarding `CC(=O)[CH-]C(=O)Nc1ccccc1.CC(=O)[CH-]C(=O)Nc1ccccc1.CC[O-].CC[O-].[Ti+4]`, the GI50 in [1], in assay [3], in assay [4], in assay [5], in [6] and in [7] was more than 100 µM in each case. The TGI in assay [1], in [3], in assay [4], in [5], in [6] and in [7] was more than 100 µM in each case.
Consider `Cc1cc(C)nc(NS(=O)(=O)c2ccc(NC(=O)c3cccn4c(=O)c5ccccc5nc34)cc2)n1`, for which the TGI in assay [1] was more than 100 µM; in [2], 44.1 µM; in assay [3], more than 100 µM; in assay [4], more than 100 µM; in assay [5] it was more than 100 µM; in assay [6], more than 100 µM. In [7], this compound had a TGI of 91.8 µM.

Source of the values: PubChem BioAssay (NCI).
